Data: EP4321514B1, “COMPOUND HAVING ALK INHIBITORY ACTIVITY, PREPARATION METHOD THEREFOR AND USE THEREOF” (CGeneTech (Suzhou, China) Co., Ltd., priority 2021, dated 2022)

Legend:
[1] = tested on: human anaplastic large cell lymphoma cell Karpas 299; test: ALK gene fusion cell proliferation inhibition test (CCK-8); assay type: cell-based; settings: 72 hours incubation, CCK-8, absorbance at 450 nm
Description: The 96-well culture plate was placed in a 5 % carbon dioxide incubator at 37 °C to be cultured overnight. A test compound was formulated into a 10 mM storage solution with DMSO, and the 10mM storage solution was gradually diluted with DMSO at a dilution ration of 1:4 to obtain 9 concentration gradients of solutions of the test compound. The test compound was diluted with culture medium to 5 times the set final concentration of corresponding action, and the diluted solution of the test compound was added at 25 µL/well to corresponding cell wells according to the set compound layout, and then incubated in a 5 % carbon dioxide incubator at 37 °C for 72 hours. After 72 hours, 10 µL of CCK-8 was added into a cell culture medium, and the culture solution was sucked from adherent cells, then a freshly prepared CCK-8 detection solution was added and the cells were incubated in a 37 °C incubator for 1-4 hours. The absorbance at 450 nm wavelength on the SpectraMax i3X Microplate Reader was measured after gently shaking, with the absorbance at 650 nm as a reference.

ALK kinase = target: T1, ALK kinase (Homo sapiens, UniProt Q9UM73); test: ALK kinase inhibition test; assay type: biochemical; settings: 0.4 ng/well ALK kinase, 5 µM ATP, fluorescence 665 nm/615 nm
T1 construct: purchased Thermo Scientific
T1 sequence (Q9UM73 19-1620): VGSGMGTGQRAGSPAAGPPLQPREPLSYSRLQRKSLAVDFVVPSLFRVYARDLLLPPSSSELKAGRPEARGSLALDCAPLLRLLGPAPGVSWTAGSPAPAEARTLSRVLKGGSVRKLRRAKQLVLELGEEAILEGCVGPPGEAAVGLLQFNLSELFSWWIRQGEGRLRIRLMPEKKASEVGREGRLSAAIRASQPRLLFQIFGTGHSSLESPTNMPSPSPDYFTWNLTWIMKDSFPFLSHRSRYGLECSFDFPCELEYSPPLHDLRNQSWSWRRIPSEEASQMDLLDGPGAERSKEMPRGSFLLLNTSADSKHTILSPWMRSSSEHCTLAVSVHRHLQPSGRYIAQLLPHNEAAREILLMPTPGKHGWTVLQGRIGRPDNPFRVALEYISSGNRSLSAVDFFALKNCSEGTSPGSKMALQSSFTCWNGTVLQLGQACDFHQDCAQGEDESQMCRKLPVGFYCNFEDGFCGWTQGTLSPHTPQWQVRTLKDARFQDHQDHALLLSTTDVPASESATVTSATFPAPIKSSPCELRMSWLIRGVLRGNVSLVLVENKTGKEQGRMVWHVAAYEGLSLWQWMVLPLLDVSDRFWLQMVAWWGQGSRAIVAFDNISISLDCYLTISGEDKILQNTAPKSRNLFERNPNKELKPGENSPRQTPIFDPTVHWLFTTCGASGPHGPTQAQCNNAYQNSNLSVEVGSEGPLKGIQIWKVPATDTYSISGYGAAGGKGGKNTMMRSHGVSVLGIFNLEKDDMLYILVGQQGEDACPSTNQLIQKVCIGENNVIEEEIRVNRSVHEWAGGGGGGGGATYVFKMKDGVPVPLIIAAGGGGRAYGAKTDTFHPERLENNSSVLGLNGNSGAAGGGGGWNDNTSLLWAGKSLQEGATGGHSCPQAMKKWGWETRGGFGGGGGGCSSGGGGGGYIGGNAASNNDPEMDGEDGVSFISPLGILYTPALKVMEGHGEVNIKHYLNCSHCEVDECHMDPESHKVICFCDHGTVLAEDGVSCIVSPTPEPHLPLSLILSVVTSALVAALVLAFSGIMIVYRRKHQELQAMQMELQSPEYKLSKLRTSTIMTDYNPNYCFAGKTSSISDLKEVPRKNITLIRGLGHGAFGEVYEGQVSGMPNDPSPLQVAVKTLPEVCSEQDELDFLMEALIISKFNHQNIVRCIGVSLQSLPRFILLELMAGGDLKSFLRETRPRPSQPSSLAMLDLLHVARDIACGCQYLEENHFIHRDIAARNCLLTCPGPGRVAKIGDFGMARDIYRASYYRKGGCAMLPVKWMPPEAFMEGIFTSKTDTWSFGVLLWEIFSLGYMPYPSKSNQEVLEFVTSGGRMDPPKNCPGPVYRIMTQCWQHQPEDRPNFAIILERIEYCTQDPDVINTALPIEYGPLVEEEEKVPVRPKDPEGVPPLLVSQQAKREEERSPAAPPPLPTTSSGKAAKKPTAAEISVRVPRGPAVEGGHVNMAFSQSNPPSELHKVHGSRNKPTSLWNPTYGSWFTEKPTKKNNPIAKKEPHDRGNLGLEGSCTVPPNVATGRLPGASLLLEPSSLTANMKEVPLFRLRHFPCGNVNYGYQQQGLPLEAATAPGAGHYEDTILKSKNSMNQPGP
Description: The inhibitory activity of the compound in the present application on ALK kinase will be determined through in vitro tests, which can be represented by IC50 value.
4 µL of the diluted solution of the test compound and 2 µL of 0.4 ng/well ALK kinase solution (Thermo Scientific) were added into reaction wells in turn, incubated for 10 min at room temperature, then 4 µL of 0.7 µM biotin-labeled tyrosine kinase substrate and 5 µM ATP solution were added to start the kinase reaction.
Software Graphpad Prism 6 was used to fit an IC50 curve and calculate an IC50 value.

Row | SMILES | IC50 [1] [nM] | IC50 (ALK kinase) [nM]
1 | C#Cc1ccc2c3c([nH]c2c1)C(C)(C)c1cc(N2CCN(C)CC2)c(Cl)cc1C3=O [Example E19, 9-chloro-3-ethynyl-6,6-dimethyl-8-(4-methylpiperazin-1-yl)-5,6-dihydro-11H-benzo[b]carbazol-1 1-one] | 11.7 | 3.73
2 | C#Cc1ccc2c3c([nH]c2c1)C(C)(C)c1cc(N2CCC(N4CCN(C)CC4)CC2)c(Cl)cc1C3=O [Example E22, 9-chloro-3-ethynyl-6,6-dimethyl-8-(4-(4-methylpiperazin-1-yl)piperidin-1-yl)-5,6-dihydro-11H-be nzo[b]carbazol-11-one] | 4.67 | 13.5
3 | C#Cc1ccc2c3c([nH]c2c1)C(C)(C)c1cc(N2CCC(NC)CC2)c(C#N)cc1C3=O [Example E28, 3-ethynyl-6,6-dimethyl-8-(4-(methylamino)piperidin-1-yl)-11-oxo-6,11-dihydro-5H-benzo[b]carb azole-9-carbonitrile] | 5 | 2.62
4 | C#Cc1ccc2c3c([nH]c2c1)C(C)(C)c1cc(N2CCN(C)CC2)c(CC)cc1C3=O [Example E2, 9-ethyl-3-ethynyl-6,6-dimethyl-8-(4-methylpiperazin-1-yl)-5,6-dihydro-11H-benzo[b]carbazol-11-one] | 18.1 | 7.38
5 | C#Cc1ccc2c3c([nH]c2c1)C(C)(C)c1cc(N2CCC(N(C)C)CC2)c(C#N)cc1C3=O [Example E15, 8-(4-(dimethylamino)piperidin-1-yl)-3-ethynyl-6,6-dimethyl-11-oxo-6,11-dihydro-5H-benzo[b]car bazole-9-carbonitrile] | 8.29 | 4.62
6 | C#Cc1ccc2c3c([nH]c2c1)C(C)(C)c1cc(N2CCC(N4CCCC4)CC2)c(C#N)cc1C3=O [Example E14, 3-ethynyl-6,6-dimethyl-11-oxo-8-(4-(pyrrolidin-1-yl)piperidin-1-yl)-6,11-dihydro-5H-benzo[b]car bazole-9-carbonitrile] | 11.4 | 6.51
7 | C#Cc1ccc2c3c([nH]c2c1)C(C)(C)c1cc(N2CCN(C)CC2)c(C#N)cc1C3=O [Example E13, 3-ethynyl-6,6-dimethyl-8-(4-methylpiperazin-1-yl)-11-oxo-6,11-dihydro-5H-benzo[b]carbazole-9-carbonitrile] | 7.52 | 5.76
8 | C#Cc1ccc2c3c([nH]c2c1)C(C)(C)c1cc(N2CCC(N4CCN(C)CC4)CC2)c(C#N)cc1C3=O [Example E16, 3-ethynyl-6,6-dimethyl-8-(4-(4-methylpiperazin-1-yl)piperidin-1-yl)-11-oxo-6,11-dihydro-5H-ben zo[b]carbazole-9-carbonitrile] | 3.27 | 5.7
9 | C#Cc1ccc2c3c([nH]c2c1)C(C)(C)c1cc(C2CCN(C)CC2)c(CC)cc1C3=O [Example E9, 9-ethyl-3-ethynyl-6,6-dimethyl-8-(1-methylpiperidin-4-yl)-5,6-dihydro-11H-benzo[b]carbazol-11-one] | 54.2 | 8.11
10 | C#Cc1ccc2c3c([nH]c2c1)C(C)(C)c1cc(N2CCC(N(C)C)CC2)c(CC)cc1C3=O [Example E6, 8-(4-(dimethylamino)piperidin-1-yl)-9-ethyl-3-ethynyl-6,6-dimethyl-5,6-dihydro-11H-benzo[b]car bazol-11-one] | 107 | 21
11 | C#Cc1ccc2c3c([nH]c2c1)C(C)(C)c1cc(N2CCC(N4CCN(C5CC5)CC4)CC2)c(CC)cc1C3=O [Example E11, 8-(4-(4-cyclopropylpiperazin-1-yl)piperidin-1-yl)-9-ethyl-3-ethynyl-6,6-dimethyl-5,6-dihydro-11 H-benzo[b]carbazol-11-one] | 186 | 59
12 | C#Cc1ccc2c3c([nH]c2c1)C(C)(C)c1cc(N2CCC(N(C)C)CC2)c(Cl)cc1C3=O [Example E21, 9-chloro-8-(4-(dimethylamino)piperidin-1-yl)-3-ethynyl-6,6-dimethyl-5,6-dihydro-11H-benzo[b]c arbazol-11-one] | 10.4 | 12.7
13 | C#Cc1ccc2c3c([nH]c2c1)C(C)(C)c1cc(N2CCNCC2)c(Cl)cc1C3=O [Example E24, 9-chloro-3-ethynyl-6,6-dimethyl-8-(piperazin-1-yl)-5,6-dihydro-11H-benzo[b]carbazol-11-one] | 18.2 | 3.29
14 | CCc1cc2c(cc1N1CCC(N3CCOCC3)CC1)C(C)(C)c1[nH]c3cc(C#CC4CC4)ccc3c1C2=O [Example E26, 3-(cyclopropylethynyl)-9-ethyl-6,6-dimethyl-8-(4-morpholinopiperidin-1-yl)-5,6-dihydro-11H-be nzo[b]carbazol-11-one] | 20.6 | 38.4
15 | C#Cc1ccc2c3c([nH]c2c1)C(C)(C)c1cc(N2CCN(C4CC4)CC2)c(Cl)cc1C3=O [Example E20, 9-chloro-8-(4-cyclopropylpiperazin-1-yl)-3-ethynyl-6,6-dimethyl-5,6-dihydro-11H-benzo[b]carbazol-11-one] | 55.9 | 40.1
16 | C#Cc1ccc2c3c([nH]c2c1)C(C)(C)c1cc(N2CCN(C4CC4)CC2)c(CC)cc1C3=O [Example E3, 8-(4-cyclopropylpiperazin-1-yl)-9-ethyl-3-ethynyl-6,6-dimethyl-5,6-dihydro-11H-benzo[b]carbazol-11-one] | 144 | 37.8
17 | C#Cc1ccc2c3c([nH]c2c1)C(C)(C)c1cc(N2CCNCC2)c(CC)cc1C3=O [Example E7, 9-ethyl-3-ethynyl-6,6-dimethyl-8-(piperazin-1-yl)-5H-benzo[b]carbazol-11(6H)-one] | 40.3 | 7.41
18 | C#Cc1ccc2c3c([nH]c2c1)C(C)(C)c1cc(N2CCC(N4CCC4)CC2)c(CC)cc1C3=O [Example E4, 8-(4-(azetidin-1-yl)piperidin-1-yl)-9-ethyl-3-ethynyl-6,6-dimethyl-5,6-dihydro-11H-benzo[b]carbazol-11-one] | 32.6 | 6.35
19 | C#Cc1ccc2c3c([nH]c2c1)C(C)(C)c1cc(N2CCC(N4CCOCC4)CC2)c(C#N)cc1C3=O [Example E12, 3-ethynyl-6,6-dimethyl-8-(4-morpholinopiperidin-1-yl)-11-oxo-6,11-dihydro-5H-benzo[b]carbazole-9-carbonitrile] | 8.71 | 6.78
20 | C#Cc1ccc2c3c([nH]c2c1)C(C)(C)c1cc(N2CCC(N4CCN(C5CC5)CC4)CC2)c(C#N)cc1C3=O [Example E18, 8-(4-(4-cyclopropylpiperazin-1-yl)piperidin-1-yl)-3-ethynyl-6,6-dimethyl-11-oxo-6,11-dihydro-5 H-benzo[b]carbazole-9-carbonitrile] | 1.71 | 10.3
21 | C#Cc1ccc2c3c([nH]c2c1)C(C)(C)c1cc(N2CCC(N4CCC4)CC2)c(Cl)cc1C3=O [Example E25, 8-(4-(azetidin-1-yl)piperidin-1-yl)-9-chloro-3-ethynyl-6,6-dimethyl-5,6-dihydro-11H-benzo[b]car bazol-11-one] | 53 | 49.9
22 | C#Cc1ccc2c3c([nH]c2c1)C(C)(C)c1cc(N2CCN(C4CC4)CC2)c(C#N)cc1C3=O [Example E17, 8-(4-cyclopropylpiperazin-1-yl)-3-ethynyl-6,6-dimethyl-11-oxo-6,11-dihydro-5H-benzo[b]carbazole-9-carbonitrile] | 33.2 | 49
